Test results reported in US20130136809A1, “7-HYRDROXYFRULLANOLIDE ITS ANALOGS FOR PREVENTION CONTROL AND TREATMENT OF METABOLIC DISORDERS” (LAILA NUTRACEUTICALS, priority 2009, published 2013).

What was measured:
[1] = system: 3T3-L1 pre-adipocyte cells; assay: Inhibition of lipid accumulation in differentiated adipocytes (Oil Red O); assay type: cell-based, mouse; conditions: 3T3-L1 adipocytes; for inhibition at 2.5 µg/mL: 2.5 μg/mL
Experimental: One hundred thousand 3T3-L1 […] pre-adipocyte cells in Dulbecco's Modified Eagles Medium (DMEM) containing 10% Fetal Bovine Serum (FBS) were taken into each well of a 24-well plate and incubated for 48 h at 37° C. and 5% CO2. The differentiation of pre-adipocyte cells was initiated in a differentiation medium containing 10 μg/ml insulin, 1.0 μM dexamethasone, and 0.5 mM isobutylmethylxanthine (IBMX) for 48 h. After this the medium was replaced by DMEM containing 10 ug/ml insulin and incubated for 3 days. Then the differentiating cells were treated with […] of 7-hydroxyfrullanolide (1) or different natural analogs (structure numbers 3 to 11) or semi-synthetic analogs (structure numbers 12 to 25) of 7-HF. The cells were maintained in the medium for another 3-5 days. The cells incubated with 0.1% DMSO were considered as the vehicle control. After the incubation period, cells were washed with phosphate buffered saline (PBS) and fixed with 10% buffered formalin for 1 h at room temperature. One small aliquot of cell suspension was separated for cell counting in hemocytometer chamber. Fixed cells were stained with Oil Red O solution to measure the cellular neutral lipid accumulation. Briefly, cells were washed with PBS, fixed with 10% buffered formalin and stained with Oil Red O solution (0.5 g in 100 ml isopropanol) for […]. After removing the staining solution, the dye retained in the cells will be eluted into isopropanol and OD measured at 550 nm. The inhibition of fat accumulation in the treated cells was compared with the mock treated differentiated adipocytes. The treated and control cells were also analyzed and compared for inhibition of lipid accumulation visually under microscope and recorded digitally in suitable image capture system. The anti-adipogenic activity by 7-HF is depicted in Figure I and the percentage inhibition of lipid accumulation shown by 7-HF and its natural and semi-synthetic analogs is summarized in Table-1.

[2] = system: 3T3-L1 pre-adipocyte cells; assay: Pro-lipolytic activity in differentiated adipocytes (free glycerol release); assay type: cell-based, mouse; conditions: increase in glycerol release
Experimental: The lipolytic activity was assessed in mature adipocytes as per the procedure of Chemicon International, USA, by measuring free glycerol secreted into the culture medium. One hundred thousand 3T3-L1 […] pre-adipocyte cells in Dulbecco's Modified Eagles Medium (DMEM) containing 10% Fetal Bovine Serum (FBS) were taken into each well of a 24-well plate and incubated for 48 h at 37° C. and 5% CO2. The differentiation of pre-adipocyte cells was initiated in a differentiation medium containing 10 µg/ml insulin, 1.0 µM dexamethasone, and 0.5 mM isobutylmethylxanthine (IBMX). The cells were differentiated for 5 days and then the culture medium was removed. The monolayer was washed twice with wash solution (Hank's balanced salt solution), and then 250 µL of incubation solution (Hank's balanced salt solution plus 2% bovine serum albumin) was added to the wells in triplicate in presence or absence of 7-hydroxyfrullanolide or its analogs or the extracts containing 7-HF, and the cells were further incubated for 16 h. To measure lipolysis, 200 μL of free glycerol assay reagent was added to 25 µL of culture supernatants and controls containing glycerol standard. The samples and the controls were incubated for 15 min, and the absorbance was read at 540 nm. A standard curve constructed from the glycerol was used to calculate the concentration of free glycerol in the culture supernatants. The percentage increase in glycerol concentration in the sample solutions compared to the control containing the known concentrations of glycerol corresponds to the percentage acceleration of lipolysis by test compound.

Question: With C=C1C(=O)OC2C3=C(C)CCCC3(C)CCC12 (centres unmarked) [Compound-1, 3,3a,4,5,5a,6,7,8-octahydro-5a,9-dimethyl-3-methylenenaphtho[1,2-b]furan-2(9bH)-one] as the compound, how does the inhibition at 2.5 µg/mL ([1]; Homo sapiens) read?
Answer: Its inhibition at 2.5 µg/mL is 19.4%.

Question: What about the “% acceleration of lipolysis” value ([2]; 10 μg/mL) of the same compound?
Answer: Its value is 44.6%.

Question: Which results are given for C=C1C(=O)O[C@@H]2[C@@]1(O)CC[C@@]1(C)CCCC(=C)[C@]21OO [Compound-3, (3aR,5aR,9aR,9bR)-decahydro-9a-hydroperoxy-3a-hydroxy-5a-methyl-3,9-dimethylenenaphtho[1,2-b]furan-2(9bH)-one]?
Answer: inhibition at 2.5 µg/mL ([1]; Homo sapiens): 40.5%; % acceleration of lipolysis ([2]; 5 μg/mL): 39.6%

Question: With C=C1C(=O)O[C@H]2C3=C(C)C(O)CC[C@]3(C)CC[C@@]12O (stereo partly drawn) [Compound-10, (3aR,5aR,9bS)-3,3a,4,5,5a,6,7,8-octahydro-3a,8-dihydroxy-5a,9-dimethyl-3-methylenenaphtho[1,2-b]furan-2(9bH)-one] as the compound, how does the inhibition at 2 µg/mL ([1]; Homo sapiens, 2.0 μg/mL) read?
Answer: The inhibition at 2 µg/mL was 45%.

Question: With C=C1C(=O)O[C@H]2C3=C(C)C(=O)CC[C@]3(C)CC[C@@]12O [Compound-11, (3aR,5aS,9bS)-3a,4,5,5a,6,7-hexahydro-3a-hydroxy-5a,9-dimethyl-3-methylenenaphtho[1,2-b]furan-2,8(3H,9bH)-dione] as the compound, how does the inhibition at 2 µg/mL ([1]; Homo sapiens, 2.0 μg/mL) read?
Answer: The inhibition at 2 µg/mL was 8%.

Question: CC1=CCC[C@]2(C)CCC3=C(C=O)C(=O)OC3=C12 [Compound-12, (R)-2,4,5,5a,6,7-hexahydro-5a,9-dimethyl-2-oxonaphtho[1,2-b]furan-3-carbaldehyde] was tested. Which inhibition at 2 µg/mL ([1]; Homo sapiens, 2.0 μg/mL) did it give?
Answer: The inhibition at 2 µg/mL was 55%.

Question: And the “% acceleration of lipolysis” value ([2]; 5 μg/mL)?
Answer: Its value is 45.2%.

Question: For C=C1C(=O)OC2C1(O)CCC1(C)CCCC3(C)OC213 (centres unmarked) [Compound-13, 4,5-epoxy-7-hydroxyfrullanolide], which “% inhibition of lipid accumulation” value ([1]; 2.0 μg/mL) is on record?
Answer: Its value is 79.7%.

Question: And the “% acceleration of lipolysis” value ([2]; 5 μg/mL)?
Answer: The value was 52.8%.

Question: For CC1=CCC[C@]2(C)CCC3=C(CBr)C(=O)OC3=C12 [Compound-14, (R)-3-(bromomethyl)-5,5a,6,7-tetrahydro-5a,9-dimethylnaphtho[1,2-b]furan-2(4H)-one], which inhibition at 2 µg/mL ([1]; Homo sapiens, 2.0 μg/mL) is on record?
Answer: The inhibition at 2 µg/mL was 14%.

Question: For CC1=C2[C@@H]3OC(=O)C(CN4CCOCC4)[C@]3(O)CC[C@@]2(C)CCC1 (stereo partly drawn) [Compound-17, (3aR,5aR,9bS)-3,3a,4,5,5a,6,7,8-octahydro-3a-hydroxy-5a,9-dimethyl-3-(morpholinomethyl)naphtho[1,2-b]furan-2(9bH)-one], which inhibition at 2 µg/mL ([1]; Homo sapiens, 2.0 μg/mL) is on record?
Answer: The inhibition at 2 µg/mL was 36.2%.

Question: For CC1=C2[C@@H]3OC(=O)C(CN4CCOCC4)[C@]3(O)CC[C@@]2(C)CCC1O (stereo partly drawn) [Compound-18, (3aR,5aR,9bS)-3,3a,4,5,5a,6,7,8-octahydro-3a,8-dihydroxy-5a,9-dimethyl-3-(morpholinomethyl)naphtho[1,2-b]furan-2(9bH)-one], which inhibition at 2.5 µg/mL ([1]; Homo sapiens) is on record?
Answer: The inhibition at 2.5 µg/mL was 133%.

Question: CC1=C2[C@@H]3OC(=O)C(CN4CCCCC4)[C@]3(O)CC[C@@]2(C)CCC1 (stereo partly drawn) [Compound-19, (3aR,5aR,9bS)-3,3a,4,5,5a,6,7,8-octahydro-3a-hydroxy-5a,9-dimethyl-3-((piperidin-1-yl)methyl)naphtho[1,2-b]furan-2(9bH)-one] was tested. Which inhibition at 2 µg/mL ([1]; Homo sapiens, 2.0 μg/mL) did it give?
Answer: The inhibition at 2 µg/mL was 23.3%.

Question: For CC1(O)CCC[C@]2(C)CCC3=C(CN4CCCCC4)C(=O)OC3=C12 (stereo partly drawn) [Compound-20, (5aR)-5,5a,6,7,8,9-hexahydro-9-hydroxy-5a,9-dimethyl-3-((piperidin-1-yl)methyl)naphtho[1,2-b]furan-2(4H)-one], which inhibition at 2 µg/mL ([1]; Homo sapiens, 2.0 μg/mL) is on record?
Answer: The inhibition at 2 µg/mL was 7%.

Question: Which inhibition at 1 µg/mL ([1]; Homo sapiens, 1.0 μg/mL) does the source give for CC1=C2[C@@H]3OC(=O)C(CN4CCNCC4)[C@]3(O)CC[C@@]2(C)CCC1 (stereo partly drawn) [Compound-22, (3aR,5aR,9bS)-3,3a,4,5,5a,6,7,8-octahydro-3a-hydroxy-5a,9-dimethyl-3-((piperazin-1-yl)methyl)naphtho[1,2-b]furan-2(9bH)-one] here?
Answer: Its inhibition at 1 µg/mL is 15%.

Question: “Piperazine Bis-7-hydroxyfrullanolide [Compound-23]” was tested. Which “% inhibition of lipid accumulation” value ([1]; 1.0 μg/mL) did it give?
Answer: The value was 15.2%.
